Data on 17 compounds can be found in paper PMC11818225, “Multifaceted Sulfonamide-Derived Thiosemicarbazones: Combining Metal Chelation and Carbonic Anhydrases Inhibition in Anticancer Therapy” (International Journal of Molecular Sciences, 2025).

Assay [1] relates to HeLa (cervix). Put plainly: Antiproliferative SBR assay (NCI protocol), HeLa. The assay is classed as cell-based, human. To be noted: 48 h exposure, n = 3, mean ± SD. An excerpt:
(§1) The latter two represent multidrug-resistant cell lines.

Assay [2] concerns SW1573 (non-small cell lung).
Protocol: The potential antiproliferative activity of sulfonamides synthesized in this study was evaluated in vitro using the SBR assay, following the US NCI protocol. A panel of six tumor cell lines was employed: A549 (non-small cell lung), HBL-100 (breast), HeLa (cervix), SW1573 (non-small cell lung), T-47D (breast), and WiDr (colon). The latter two represent multidrug-resistant cell lines.
Cells were maintained in culture in 60 mm cell culture dishes in growth medium (10 mL) and passaged twice weekly.
The antiproliferative activity of compounds was tested using our implementation of the protocol of the National Cancer Institute (NCI) of the USA. The following seeding densities (cells per well) were used: 2500 (A549, HBL-100, HeLa, and SW1573) and 5000 (T-47D and WiDr). Stock solutions of inhibitors (40 mM) were prepared in pure DMSO (400 times the maximum test concentration).
Assay [3] has as its system HBL-100 (breast). Put plainly: Antiproliferative SBR assay (NCI protocol), HBL-100. It counts as cell-based, human. Particulars: 48 h exposure, n = 3, mean ± SD.
Excerpt: as §1

Assay [4] concerns WiDr (colon). In words: Antiproliferative SBR assay (NCI protocol), WiDr. The assay is classed as cell-based, human. Particulars: 48 h exposure, n = 3, mean ± SD, multidrug-resistant line.
Excerpt: as §1

The subject of assay [5] is T-47D (breast). In words: Antiproliferative SBR assay (NCI protocol), T-47D. It counts as cell-based, human. To be noted: 48 h exposure, n = 3, mean ± SD, multidrug-resistant line.
Excerpt: as §1

Assay [6] deals with A549 (non-small cell lung). Put plainly: Antiproliferative SBR assay (NCI protocol), A549. The assay is classed as cell-based, human. Particulars: 48 h exposure, n = 3, mean ± SD.
Excerpt: as §1

Assay [7] deals with human CA IX (Homo sapiens, UniProt Q16790). In words: Stopped-flow CO2 hydrase assay, CA IX. To be noted: for Selectivity Ratio I/IX: Ki CA I / Ki CA IX; for Selectivity Ratio II/IX: Ki CA II / Ki CA IX.
Assay [8] deals with human CA II (Homo sapiens, UniProt P00918). In words: Stopped-flow CO2 hydrase assay, CA II.
The target in assay [9] is human CA I (Homo sapiens, UniProt P00915). In words: Stopped-flow CO2 hydrase assay, CA I.
The target in assay [10] is human CA XII (Homo sapiens, UniProt O43570). Put plainly: Stopped-flow CO2 hydrase assay, CA XII. To be noted: for Selectivity Ratio I/XII: Ki CA I / Ki CA XII; for Selectivity Ratio II/XII: Ki CA II / Ki CA XII.
human CA XII, sequence (O43570 25-354): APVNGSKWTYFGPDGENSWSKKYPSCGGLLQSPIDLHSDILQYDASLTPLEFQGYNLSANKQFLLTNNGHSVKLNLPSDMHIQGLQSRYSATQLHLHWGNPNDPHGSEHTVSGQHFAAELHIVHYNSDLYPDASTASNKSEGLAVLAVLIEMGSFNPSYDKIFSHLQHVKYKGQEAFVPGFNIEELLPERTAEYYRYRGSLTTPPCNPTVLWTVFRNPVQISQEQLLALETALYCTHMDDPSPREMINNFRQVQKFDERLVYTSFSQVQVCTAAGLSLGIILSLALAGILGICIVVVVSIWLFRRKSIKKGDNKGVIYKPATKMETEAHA

human CA I, sequence (P00915 whole entry): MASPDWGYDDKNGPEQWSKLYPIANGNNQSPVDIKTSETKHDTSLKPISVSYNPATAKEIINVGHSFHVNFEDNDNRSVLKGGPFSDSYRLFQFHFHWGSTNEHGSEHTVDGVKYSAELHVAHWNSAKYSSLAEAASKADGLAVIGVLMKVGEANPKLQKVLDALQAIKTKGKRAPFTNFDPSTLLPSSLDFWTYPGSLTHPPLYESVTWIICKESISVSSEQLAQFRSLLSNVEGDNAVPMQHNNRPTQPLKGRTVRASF

The GI50 is the concentration at which growth is held to half of that of the control. The low end stands for greater sensitivity of the cells, the high end for lower sensitivity of the cells. Turning to `COc1ccc(/C=N/NC(=S)Nc2ccc(S(N)(=O)=O)cc2)cc1` [Compound 4b, 1-(4′-Methoxyphenylmethylene)-4-(4″-sulfonamidophenyl)-3-thiosemicarbazone], the GI50 is 64 ± 23 µM in assay [1] (Homo sapiens, HeLa); more than 100 µM in [2]; more than 100 µM in [3] (Homo sapiens, HBL-100); more than 100 µM in assay [4] (Homo sapiens, WiDr); more than 100 µM in assay [5] (Homo sapiens, T47D); more than 100 µM in assay [6] (Homo sapiens, A549).
Turning to `O=c1[nH]cc(F)c(=O)[nH]1` [5-Fluorouracil, reference compound], the GI50 in assay [1] (Homo sapiens, HeLa) was 16 ± 5 µM; in assay [2] it was 3.3 ± 1.2 µM; in assay [3] (Homo sapiens, HBL-100) it was 4.4 ± 0.7 µM; in [4] (Homo sapiens, WiDr), 49 ± 7 µM; in assay [5] (Homo sapiens, T47D), 43 ± 16 µM; in [6] (Homo sapiens, A549), 2.2 ± 0.3 µM.
Turning to `NS(=O)(=O)c1ccc(NC(=S)N/N=C/c2ccc(F)cc2)cc1` [Compound 4c, 1-(4′-Fluorophenylmethylene)-4-(4″-sulfonamidophenyl)-3-thiosemicarbazone], the GI50 in assay [1] (Homo sapiens, HeLa) is 7.9 ± 1.1 µM; in assay [2], 6 ± 0.4 µM; in assay [3] (Homo sapiens, HBL-100) it was 28 ± 1 µM; in assay [4] (Homo sapiens, WiDr), 24 ± 4 µM; in assay [5] (Homo sapiens, T47D), 17 ± 1 µM; in assay [6] (Homo sapiens, A549) it was 25 ± 5 µM.
What is called Ki is the equilibrium dissociation constant of an inhibitor or competing ligand from its target. Lower therefore signals tighter binding. Consider `NS(=O)(=O)c1ccc(CCNC(=S)N/N=C/c2ccc(Br)cc2)cc1` [Compound 4p, 1-(4′-Bromophenylmethylene)-4-[2″-(4‴-sulfonamido)phenyl]ethyl-3-thiosemicarbazone], for which the GI50 in assay [1] (Homo sapiens, HeLa) came to 31 ± 9 µM; in assay [2], 53 ± 17 µM; in assay [3] (Homo sapiens, HBL-100), 42 ± 8 µM; in assay [4] (Homo sapiens, WiDr) it was 58 ± 9 µM; in assay [5] (Homo sapiens, T47D), 37 ± 8 µM; in [6] (Homo sapiens, A549), 21 ± 4 µM. The Ki is 0.499 µM in assay [7], 0.813 µM in assay [8], 6.09 µM in assay [9] and 0.123 µM in [10]. Further, the “Selectivity Ratio I/IX” value in [7] is on record as 12.2. In addition, in [7], the “Selectivity Ratio II/IX” value is listed as 1.6. For the same compound, the “Selectivity Ratio I/XII” value in [10] came to 49.5. For the same compound, in assay [10], the “Selectivity Ratio II/XII” value came out at 6.6.
As for `NS(=O)(=O)c1cccc(NC(=S)N/N=C/c2ccc(Br)cc2)c1` [Compound 4k, 1-(4′-Bromophenylmethylene)-4-(3″-sulfonamidophenyl)-3-thiosemicarbazone], the GI50 in assay [1] (Homo sapiens, HeLa) was 45 ± 5 µM; in assay [2], 46 ± 1 µM; in assay [3] (Homo sapiens, HBL-100), 40 ± 1 µM; in assay [4] (Homo sapiens, WiDr), more than 100 µM; in assay [5] (Homo sapiens, T47D), more than 100 µM; in [6] (Homo sapiens, A549) it was 19 ± 6 µM.
Regarding `NS(=O)(=O)c1ccc(CCNC(=S)N/N=C/c2ccc(Cl)cc2)cc1` [Compound 4o, 1-(4′-Chlorophenylmethylene)-4-[2″-(4‴-sulfonamido)pheny]ethyl-3-thiosemicarbazone], the 50% growth inhibitory concentration (GI50) in assay [1] (Homo sapiens, HeLa) was 45 ± 16 µM; in assay [2] it was 73 ± 38 µM; in [3] (Homo sapiens, HBL-100) it was 76 ± 32 µM; in assay [4] (Homo sapiens, WiDr), more than 100 µM; in assay [5] (Homo sapiens, T47D), more than 100 µM; in assay [6] (Homo sapiens, A549), 62 ± 6 µM. The Ki stood at 0.408 µM in assay [7], 0.773 µM in assay [8], 6.22 µM in [9] and 0.143 µM in assay [10]. The “Selectivity Ratio I/IX” value in assay [7] came out at 15.2. Further, the “Selectivity Ratio II/IX” value in assay [7] was determined as 1.9. The “Selectivity Ratio I/XII” value in assay [10] was 43.4.
For the compound `NS(=O)(=O)c1ccc(CCNC(=S)N/N=C/c2ccc(F)cc2)cc1` [Compound 4n, 1-(4′-Fluorophenylmethylene)-4-[2″-(4‴-sulfonamido)phenyl]ethyl-3-thiosemicarbazone], the GI50 is more than 100 µM in assay [1] (Homo sapiens, HeLa); more than 100 µM in [2]; more than 100 µM in assay [3] (Homo sapiens, HBL-100); more than 100 µM in assay [4] (Homo sapiens, WiDr); more than 100 µM in assay [5] (Homo sapiens, T47D); more than 100 µM in assay [6] (Homo sapiens, A549). Moreover, the Ki was 0.3 µM in assay [7], 0.59 µM in assay [8], 2.49 µM in assay [9] and 0.0485 µM in [10]. Also, in assay [7], the “Selectivity Ratio I/IX” value was 8.3. Further, the “Selectivity Ratio II/IX” value in assay [7] was determined as 2.0. In assay [10], the “Selectivity Ratio I/XII” value was determined as 51.2. For the same compound, the “Selectivity Ratio II/XII” value in [10] worked out at 12.2.
In the case of `NNC(=S)Nc1cccc(S(N)(=O)=O)c1` [Compound 3b, 4-N-(3′-Sulfonamidophenyl)-3-thiosemicarbazide], the GI50 in assay [1] (Homo sapiens, HeLa) was more than 100 µM; in assay [2], more than 100 µM; in assay [3] (Homo sapiens, HBL-100) it was more than 100 µM; in assay [4] (Homo sapiens, WiDr) it was more than 100 µM; in assay [5] (Homo sapiens, T47D) it was more than 100 µM; in assay [6] (Homo sapiens, A549), more than 100 µM. Moreover, the Ki is 0.185 µM in assay [7], 0.439 µM in assay [8], 1.46 µM in assay [9] and 0.116 µM in assay [10]. In assay [7], the “Selectivity Ratio I/IX” value stood at 7.9. Moreover, in [7], the “Selectivity Ratio II/IX” value is 2.4. Also, the “Selectivity Ratio I/XII” value in assay [10] turned out to be 12.6. Besides, the “Selectivity Ratio II/XII” value in assay [10] is 3.8.
Turning to `NS(=O)(=O)c1cccc(NC(=S)N/N=C/c2ccc(F)cc2)c1` [Compound 4i, 1-(4′-Fluorophenylmethylene)-4-(3″-sulfonamidophenyl)-3-thiosemicarbazone], the GI50 is more than 100 µM in assay [1] (Homo sapiens, HeLa); more than 100 µM in assay [2]; more than 100 µM in [3] (Homo sapiens, HBL-100); 79 ± 29 µM in [4] (Homo sapiens, WiDr); more than 100 µM in [5] (Homo sapiens, T47D); 83 ± 16 µM in [6] (Homo sapiens, A549).
Regarding `NS(=O)(=O)c1ccc(NC(=S)N/N=C/c2ccc([N+](=O)[O-])cc2)cc1` [Compound 4f, 1-(4′-Nitrophenylmethylene)-4-(4″-sulfonamidophenyl)-3-thiosemicarbazone], the GI50 in assay [1] (Homo sapiens, HeLa) is more than 100 µM; in [2], more than 100 µM; in assay [3] (Homo sapiens, HBL-100) it was more than 100 µM; in assay [4] (Homo sapiens, WiDr), more than 100 µM; in assay [5] (Homo sapiens, T47D), more than 100 µM; in assay [6] (Homo sapiens, A549) it was more than 100 µM.
On to `NS(=O)(=O)c1ccc(NC(=S)N/N=C/c2ccc(Cl)cc2)cc1` [Compound 4d, 1-(4′-Chlorophenylmethylene)-4-(4″-sulfonamidophenyl)-3-thiosemicarbazone], for which the GI50 in assay [1] (Homo sapiens, HeLa) was more than 100 µM; in assay [2], more than 100 µM; in [3] (Homo sapiens, HBL-100), more than 100 µM; in assay [4] (Homo sapiens, WiDr), more than 100 µM; in [5] (Homo sapiens, T47D), more than 100 µM; in assay [6] (Homo sapiens, A549), more than 100 µM.
`NS(=O)(=O)c1cccc(NC(=S)N/N=C/c2ccc(Cl)cc2)c1` [Compound 4j, 1-(4′-Chlorophenylmethylene)-4-(3″-sulfonamidophenyl)-3-thiosemicarbazone]: the GI50 was determined as 38 ± 3 µM in [1] (Homo sapiens, HeLa); 36 ± 4 µM in assay [2]; 42 ± 15 µM in assay [3] (Homo sapiens, HBL-100); 24 ± 8 µM in assay [4] (Homo sapiens, WiDr); 59 ± 16 µM in assay [5] (Homo sapiens, T47D); 22 ± 4 µM in [6] (Homo sapiens, A549).
In the case of `COc1ccc(/C=N/NC(=S)Nc2cccc(S(N)(=O)=O)c2)cc1` [Compound 4h, 1-(4′-Methoxyphenylmethylene)-4-(3″-sulfonamidophenyl)-3-thiosemicarbazone], the 50% growth inhibitory concentration (GI50) was more than 100 µM in assay [1] (Homo sapiens, HeLa); more than 100 µM in [2]; more than 100 µM in assay [3] (Homo sapiens, HBL-100); more than 100 µM in [4] (Homo sapiens, WiDr); more than 100 µM in assay [5] (Homo sapiens, T47D); more than 100 µM in assay [6] (Homo sapiens, A549).
Take `[NH2][Pt]([NH2])([Cl])[Cl]` [CDDP, cisplatin, reference compound]: the GI50 in assay [1] was found to be 1.8 ± 0.5 µM; in [2], 2.7 ± 0.4 µM; in assay [3], 1.9 ± 0.2 µM; in assay [4], 26 ± 4 µM; in assay [5] it was 17 ± 3 µM; in assay [6] it was 4.9 ± 0.2 µM.
For the compound `NNC(=S)Nc1ccc(S(N)(=O)=O)cc1` [Compound 3a, 4-N-(4′-Sulfonamidophenyl)-3-thiosemicarbazide], the GI50 is more than 100 µM in assay [1] (Homo sapiens, HeLa); more than 100 µM in assay [2]; more than 100 µM in [3] (Homo sapiens, HBL-100); more than 100 µM in assay [4] (Homo sapiens, WiDr); more than 100 µM in assay [5] (Homo sapiens, T47D); more than 100 µM in [6] (Homo sapiens, A549).
As for `NS(=O)(=O)c1ccc(NC(=S)N/N=C/c2ccc(Br)cc2)cc1` [Compound 4e, 1-(4′-Bromophenylmethylene)-4-(4″-sulfonamidophenyl)-3-thiosemicarbazone], the concentration for 50% growth inhibition (GI50) is 18 ± 1 µM in assay [1] (Homo sapiens, HeLa); 22 ± 1 µM in assay [2]; 24 ± 2 µM in [3] (Homo sapiens, HBL-100); 62 ± 12 µM in assay [4] (Homo sapiens, WiDr); 36 ± 1 µM in [5] (Homo sapiens, T47D); 23 ± 6 µM in assay [6] (Homo sapiens, A549).
Consider `NS(=O)(=O)c1cccc(NC(=S)N/N=C/c2ccccc2)c1` [Compound 4g, 1-Phenylmethylene-4-(3″-sulfonamidophenyl)-3-thiosemicarbazone], for which the 50% growth inhibitory concentration (GI50) in [1] (Homo sapiens, HeLa) was 61 ± 6 µM; in assay [2] it was 70 ± 1 µM; in [3] (Homo sapiens, HBL-100), more than 100 µM; in assay [4] (Homo sapiens, WiDr), 62 ± 10 µM; in assay [5] (Homo sapiens, T47D) it was 83 ± 10 µM; in assay [6] (Homo sapiens, A549) it was 51 ± 10 µM.
